# How the values were obtained:
# [1] = tested on: hAT-MSC P3 and hBM-MSC P3; assay: Cell morphology, culture after standing and survival, results not separated by cell type; type: cell-based, human; settings: trehalose in HESPANDER; 36 hr (Example 6)
# Description: The cells obtained by passaging hAT-MSCs and hBM-MSCs three times (hAT-MSC P3 and hBM-MSC P3) were plated on 10-cm dishes. The cells were washed three times with 5-ml PBS(−) per 10-cm dish, and detached by treating with 1-ml trypsin-EDTA (0.25% trypsin, 1 mM EDTA·4Na) for 20 sec into a single-cell state. […] After standing at room temperature (about 25° C.) for 240 min or 24 hr, the survival rate of the cells was measured, and the cell aggregation and morphology were observed. Furthermore, after standing for 240 min or 24 hr, the cells were further cultured for 12 hr and the cell morphology was observed.
# hAT-MSCs and hBM-MSCs were passaged three times and the obtained cells (hAT-MSCs P3 and hBM-MSCs P3) were plated on 10 cm-dishes. The cells were washed three times with 5-ml PBS(−) per 10-cm dish, and detached by treating with 1-ml trypsin-EDTA (0.25% trypsin, 1 mM EDTA·4Na) for 20 sec into a single-cell state. The obtained cells (hAT-MSCs P3, 4.25×10^5 cells; survival rate, 97.5%: hBM-MSCs P3, 5.0×10^5 cells; survival rate, 98.2%) were transferred to a 15-ml FALCON tube, recovered by centrifugation, washed twice with PBS(−), and suspended in the following composition solution (100 μL). After standing at room temperature (about 25° C.) for 8 hr or 36 hr, the survival rate of the cells was measured and the cell aggregation was observed.
# [2] = tested on: Swine subcutaneous adipose tissue-derived mesenchymal stem cells (Pig AT-MSCs); assay: Microscopic observation of cell aggregate mass and cell floating state; type: cell-based; settings: from dilution series of ET-K with saline; Pig AT-MSCs P2; 25° C.
# Description: The suspension was left standing at each temperature (0, 25, and 37° C.), pipetted several times with 20 μL PIPETMAN 0, 30, 60, 120 and 240 min later, and 10 μL thereof was transferred to a dish. A stereomicroscope was focused on the lowermost surface of the suspension on the dish, and observation was performed. The cells forming a mass with adjacent cells under the microscope were taken as cell aggregate mass. The cell aggregate mass was confirmed to be obviously moving as a mass by shaking the dish on the stage of the microscope. The swine subcutaneous adipose tissue-derived mesenchymal stem cells prepared in Example 1 were passaged twice and the obtained cells (Pig AT-MSCs P2) were plated on three 10 cm-dishes. The cells were washed three times with 5 ml PBS(−) per 10 cm dish, and detached by treating with 1 ml trypsin-EDTA (0.25% trypsin, 1 mM EDTA·4Na) for 20 sec into a single-cell state. […] Thereafter, in the same manner as in Example 1, the survival rate was calculated and the presence or absence of the cell aggregate mass was observed. […] Thereafter, in the same manner as in Example 1, the survival rate was calculated and the presence or absence of a cell aggregate mass was observed. […]
# [3] = tested on: hAT-MSCs P8 and hBM-MSCs P6; assay: Survival rate, cell aggregation and floating after standing for 1 hr (Example 7); type: cell-based, human; settings: about 25° C.
# Description: hAT-MSCs and hBM-MSCs were passaged 6 or 8 times and the obtained cells (hAT-MSCs P8 and hBM-MSCs P6) were plated on 10 cm-dishes. The cells were washed three times with 5-ml HESPANDER (KYORIN Pharmaceutical Co., Ltd.) per 10-cm dish, and detached by treating with 1-ml trypsin-EDTA (0.25% trypsin, 1 mM EDTA·4Na) for 20 sec into a single-cell state. The obtained cells (hAT-MSCs P8, 2.4×10^6 cells; hBM-MSCs P6, 2.3×10^6 cells) were transferred to a 15-ml FALCON tube, recovered by centrifugation, and suspended in the following composition solution. After standing at room temperature (about 25° C.) for 1 hr, the survival rate of the cells was measured and the cell aggregation was observed.
structure (smiles),measurement,setting,value
OC[C@H]1O[C@H](O[C@H]2O[C@H](CO)[C@@H](O)[C@H](O)[C@H]2O)[C@H](O)[C@@H](O)[C@@H]1O [trehalose],trehalose concentration suggested to be preferable to increase the cell survival rate,[1],not more than 181.2 mg/mL
same,trehalose concentration at which a stem cell aggregation suppressive effect is exhibited,[2],not less than 15.1 mg/ml
same,trehalose concentration at which the stem cells float stably,[2],at least 15.1 mg/ml
same,cell aggregation suppressive effect,[3],observed
same,cell floating effect,[3],observed
same,protrusion from the cell / on the cell surface,[3],suppressed
same,cell survival rate,[3]; added to HESPANDER,higher than by adding HESPANDER (H) alone
same,effect on the cytotoxicity of fucoidan,[3]; trehalose with 10 μg/ml fucoidan in HESPANDER,tendency to suppress the cytotoxicity of fucoidan

# Reference: patent US10087421B2, “Stem cell suspension” (OTSUKA PHARMACEUTICAL FACTORY, INC., priority 2010, dated 2018)
